Experimental data as given in US20040029843A1, “Rapidly disintegrating formulations for treating or preventing mucositis” (OraPharma, Inc., priority 2002, published 2004).
Counter-ions that a name gives are not always drawn.

Tested on: mucositis induced by acute radiation exposure of the cheek pouch
Assay: Hamster cheek pouch model of radiation-induced oral mucositis, clinical scoring 0-5
Format: in vivo, Hamsters
Conditions: 0.1 ml of 0.1 mg/ml aqueous solution topically three times a day for 22 days; for reduction in the number of animal days with scores of 3 or more relative to the control group: 35 Gy on day 0; for mucositis scores versus placebo control group: 35 Gy on day 0, visual score 0-5
Description: Hamsters were randomly assigned to treatment groups with eight (8) animals per group. Each group was treated either with a drug solution or a control, water.
Animals were dosed three times a day for 22 days. The first dose was applied on day -1. Either a solution of the drug or water alone was applied in a volume of 0.1 ml three times per day.
Mucositis was induced by acute radiation exposure of the check pouch. A single dose of radiation (35 Gy/dose) was administered to all animals on Day 0. Prior to irradiation, animals were anesthetized with an intraperiotoneal injection of sodium pentobarbital (80 mg/kg) and the left buccal pouch was everted, fixed and isolated using a lead shield.
Beginning on day 6 and continuing every other day up to day 28, the cheek pouch was photographed. On days that photographs were taken, prior to the first dosing of the day, the animals were anesthetized using an inhalation anesthetic and the left cheek pouch of each animal was rinsed vigorously with sterile water to remove residual food debris or foreign contamination and blotted dry with a gauze sponge. The appearance of the cheek pouch was scored visually by comparison to a validated photographic scale, ranging from 0 for normal to 5 for severe ulceration (clinical scoring). In descriptive terms, this scale is defined as follows: […]
0 Pouch completely healthy. No erythema or vasodilatation
1 Light to […] erythema and vasodilatation. No erosion of mucosa
2 Severe erythema and vasodilatation. Erosion of superficial aspects of mucosa leaving denuded areas. Decreased stippling of mucosa
3 Formation of off-white ulcers in one or more places. Ulcers may have a yellow/gray color due to pseudomembrane formation. Cumulative size of ulcers up to ¼ of the pouch surface. Severe erythema and vasodilatation
4 Cumulative size of ulcers ¼ to ½ of the pouch surface. Loss of pliability. Severe erythema and vasodilatation
5 Virtually all of pouch is ulcerated. Loss of pliability (pouch can only partially be extracted from mouth).
A score of 1-2 represents mild stage of the disease, whereas a score of 3-5 indicates moderate to severe mucositis.

| Molecule | reduction in the number of animal days with scores of 3 or more relative to the control group | mucositis scores versus placebo control group |
| --- | --- | --- |
| CN(C)[C@@H]1C(O)=C(C(N)=O)C(=O)[C@@]2(O)C(O)=C3C(=O)c4c(O)cccc4[C@@](C)(O)[C@H]3C[C@@H]12 [tetracycline hydrochloride] | more than 75% | Significantly lower scores |
| meclocycline sulfosalicylate | more than 75% | Significantly lower scores |
